From ChEMBL document CHEMBL4425182, “Trypsin inhibitors for the treatment of pancreatitis” (Bioorg Med Chem Lett, 2016)

Tests used:
Serine protease 1 = Serine protease 1 (Homo sapiens, UniProt P07477); test: Inhibition of human PRSS1 assessed as enzymatic cleavage of Benzoyl-GlyPro-Arg'Rh110-gammaGlu-OH by fluorescence analysis
[1] = target: Voltage-gated inwardly rectifying potassium channel KCNH2 (Homo sapiens, UniProt Q12809); test: Displacement of [3H]-dofetilide from human ERG expressed in HEK293 cells measured after 90 mins by scintillation proximity assay; assay type: cell-based
Sequence of Voltage-gated inwardly rectifying potassium channel KCNH2 (Q12809 whole entry): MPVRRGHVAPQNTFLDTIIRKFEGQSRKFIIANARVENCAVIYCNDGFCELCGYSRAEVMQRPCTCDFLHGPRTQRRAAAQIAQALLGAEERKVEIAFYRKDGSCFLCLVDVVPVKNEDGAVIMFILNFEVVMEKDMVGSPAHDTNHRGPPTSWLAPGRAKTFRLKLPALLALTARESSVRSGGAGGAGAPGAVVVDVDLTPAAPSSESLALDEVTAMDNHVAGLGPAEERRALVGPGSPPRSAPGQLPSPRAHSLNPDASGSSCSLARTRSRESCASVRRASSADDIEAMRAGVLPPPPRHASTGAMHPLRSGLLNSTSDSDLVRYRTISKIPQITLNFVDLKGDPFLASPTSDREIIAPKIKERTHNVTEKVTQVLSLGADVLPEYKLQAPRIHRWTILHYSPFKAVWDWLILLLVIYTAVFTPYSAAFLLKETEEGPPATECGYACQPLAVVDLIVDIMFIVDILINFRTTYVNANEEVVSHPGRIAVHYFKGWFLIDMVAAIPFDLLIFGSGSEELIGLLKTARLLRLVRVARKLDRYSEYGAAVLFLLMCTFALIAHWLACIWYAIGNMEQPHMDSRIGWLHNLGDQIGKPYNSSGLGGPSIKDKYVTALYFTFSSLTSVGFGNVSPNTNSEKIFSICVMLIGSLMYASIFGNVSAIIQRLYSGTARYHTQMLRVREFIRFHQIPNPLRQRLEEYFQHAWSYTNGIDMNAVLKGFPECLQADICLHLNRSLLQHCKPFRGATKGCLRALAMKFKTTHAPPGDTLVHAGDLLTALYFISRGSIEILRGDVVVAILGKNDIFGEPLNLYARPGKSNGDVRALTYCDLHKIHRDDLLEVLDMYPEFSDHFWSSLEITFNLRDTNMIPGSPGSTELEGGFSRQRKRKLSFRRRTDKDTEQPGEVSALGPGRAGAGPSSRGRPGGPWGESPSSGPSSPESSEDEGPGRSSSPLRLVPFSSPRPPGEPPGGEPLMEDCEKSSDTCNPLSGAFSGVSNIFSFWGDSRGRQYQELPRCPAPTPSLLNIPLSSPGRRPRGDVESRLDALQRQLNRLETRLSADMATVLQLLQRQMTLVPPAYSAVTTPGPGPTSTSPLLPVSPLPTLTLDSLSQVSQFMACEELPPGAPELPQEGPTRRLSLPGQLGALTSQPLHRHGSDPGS

[2] = Dissociation constant, pKa of the compound; assay type: physicochemical
Coagulation factor X = Coagulation factor X (Homo sapiens, UniProt P00742); test: Inhibition of human f10a
Sequence of Coagulation factor X (P00742 41-179 limits assumed): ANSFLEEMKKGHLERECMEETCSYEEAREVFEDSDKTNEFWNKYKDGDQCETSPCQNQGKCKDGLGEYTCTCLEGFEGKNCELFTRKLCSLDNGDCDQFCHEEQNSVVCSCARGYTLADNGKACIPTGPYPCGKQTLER
Sequence of Coagulation factor X (P00742 235-488 limits assumed): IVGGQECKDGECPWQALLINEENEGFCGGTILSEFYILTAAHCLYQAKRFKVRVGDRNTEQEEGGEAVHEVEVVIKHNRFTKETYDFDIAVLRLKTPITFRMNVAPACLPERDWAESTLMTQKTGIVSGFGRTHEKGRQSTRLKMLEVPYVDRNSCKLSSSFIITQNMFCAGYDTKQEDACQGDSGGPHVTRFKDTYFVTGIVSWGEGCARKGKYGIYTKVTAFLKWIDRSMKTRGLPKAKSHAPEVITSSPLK

Prothrombin = Prothrombin (Homo sapiens, UniProt P00734); test: Inhibition of human thrombin
Neutrophil elastase = target: T1, Neutrophil elastase (Homo sapiens, UniProt P08246); test: Inhibition of human neutrophil elastase
T1 sequence (P08246 whole entry): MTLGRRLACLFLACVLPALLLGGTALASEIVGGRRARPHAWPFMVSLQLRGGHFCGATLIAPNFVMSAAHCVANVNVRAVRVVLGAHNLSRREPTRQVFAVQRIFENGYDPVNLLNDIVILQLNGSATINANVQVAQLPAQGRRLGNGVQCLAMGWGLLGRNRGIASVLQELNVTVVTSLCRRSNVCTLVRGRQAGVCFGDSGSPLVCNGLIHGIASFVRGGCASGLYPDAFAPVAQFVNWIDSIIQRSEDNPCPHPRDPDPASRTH

Chymotrypsin = Chymotrypsin (Homo sapiens, UniProt Q99895+P17538+P40313+Q6GPI1); test: Inhibition of human chymotrypsin; assay type: protein assay
[3] = Lipophilicity, log P of the compound; assay type: physicochemical; details: octanol/water
[4] = Solubility of the compound at pH 6.8; assay type: physicochemical; details: buffer
[5] = Clearance in Sprague-Dawley rat at 1 mg/kg, iv; assay type: ADME, organism-based; details: in vivo
[6] = AUC (0 to 24 hrs) in Sprague-Dawley rat at 1 mg/kg, iv; assay type: ADME, organism-based; parameters: time < 24 hr, dose 1 mg/kg, route intravenous; details: in vivo

Sequence of Serine protease 1 (P07477 whole entry): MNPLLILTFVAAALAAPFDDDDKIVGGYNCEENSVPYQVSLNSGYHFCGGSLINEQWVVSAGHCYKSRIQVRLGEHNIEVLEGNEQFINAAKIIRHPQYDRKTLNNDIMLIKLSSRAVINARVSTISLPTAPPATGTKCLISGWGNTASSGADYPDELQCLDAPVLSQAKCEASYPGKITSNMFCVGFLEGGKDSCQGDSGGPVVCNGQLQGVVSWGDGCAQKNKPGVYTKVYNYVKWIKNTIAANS

Compound | IC50 (Serine protease 1) [µM] | IC50 [1] [µM] | further results
NCc1ccc(C(=O)N2C[C@@H](n3cc(C4CC4)nn3)C[C@H]2C(=O)NCC(c2ccccc2)c2ccccc2)cc1F | 31 |  | pKa [2]: 6.2
NCc1ccc(C(=O)N2C[C@@H](n3cc(C4CC4)nn3)C[C@H]2C(=O)NCC(c2ccccc2)c2ccccc2)cc1 | 0.11 | 0.5 | pKa [2]: 8.5; IC50 (Coagulation factor X): 71 µM; logP [3]: 3; IC50 (Prothrombin): 94 µM; solubility [4]: > 1000 µM; IC50 (Neutrophil elastase): > 100 µM; IC50 (Chymotrypsin): > 100 µM
CNC(=O)[C@@H]1C[C@H](n2cc(C3CC3)nn2)CN1C(=O)c1ccc(CN)c(OC)c1 | 2.1 | > 30 | 
COc1cc(C(=O)N2C[C@@H](n3cc(C4CC4)nn3)C[C@H]2C(=O)N[C@@H]2C[C@H]2c2ccccc2)ccc1CN | 0.11 | 22 | 
COc1cc(C(=O)N2C[C@@H](n3cc(C4CC4)nn3)C[C@H]2C(=O)N2CC[C@H](c3ccccc3)C2)ccc1CN | 0.22 | 14 | 
CNC(=O)[C@@H]1C[C@H](N2CCc3ccccc3C2)CN1C(=O)c1ccc(CN)c(OC)c1 | 0.49 | > 30 | 
COc1cc(C(=O)N2C[C@@H](n3cc(C4CC4)nn3)C[C@H]2C(=O)N[C@H]2C[C@@H]2c2ccccc2)ccc1CN | 0.96 |  | 
COc1cc(C(=O)N2C[C@@H](n3cc(C4CC4)nn3)C[C@H]2C(=O)NCCc2ccccc2)ccc1CN | 0.16 |  | 
COc1cc(C(=O)N2C[C@@H](n3cc(C4CC4)nn3)C[C@H]2C(=O)N2CC[C@@H](c3ccccc3)C2)ccc1CN | 0.33 |  | 
Cc1cc(C(=O)N2C[C@@H](n3cc(C4CC4)nn3)C[C@H]2C(=O)NCC(c2ccccc2)c2ccccc2)ccc1CN | 0.11 |  | pKa [2]: 8.7

Molecules with a lower IC50 (Serine protease 1), results first:

IC50 (Serine protease 1) [µM] | Compound | IC50 [1] [µM] | further results
0.003 | CNC(=O)[C@@H]1C[C@H](N2CCc3c(cccc3OCCc3ccccc3)C2)CN1C(=O)c1ccc(CN)c(OC)c1 | 4 | 
0.019 | COc1cc(C(=O)N2C[C@@H](n3cc(C4CC4)nn3)C[C@H]2C(=O)N[C@H]2CCCC[C@@H]2c2ccccc2)ccc1CN |  | IC50 (Coagulation factor X): 72 µM; IC50 (Prothrombin): 54 µM; IC50 (Neutrophil elastase): > 100 µM; IC50 (Chymotrypsin): > 100 µM
0.005 | CNC(=O)[C@@H]1C[C@H](N2CCc3c(ncnc3OCCc3ccccc3)C2)CN1C(=O)c1ccc(CN)c(OC)c1 | > 30 | 
0.1 | CNC(=O)[C@@H]1C[C@H](N2CCc3c(cccc3OC)C2)CN1C(=O)c1ccc(CN)c(OC)c1 | > 30 | 
0.006 | CNC(=O)[C@@H]1C[C@H](N2CCc3c(ncnc3OCCC3CC3)C2)CN1C(=O)c1ccc(CN)c(OC)c1 | > 30 | 
0.011 to 0.014 | COc1cc(C(=O)N2C[C@@H](n3cc(C4CC4)nn3)C[C@H]2C(=O)NCC(c2ccccc2)c2ccccc2)ccc1CN | 2.4 | pKa [2]: 9.2; clearance [5]: 33 mL/min/kg; IC50 (Coagulation factor X): 31 µM; IC50 (Prothrombin): 27 µM; AUC(0-t) at 24 h [6]: 1.03 µM·h; solubility [4]: > 1000 µM; IC50 (Neutrophil elastase): 55 µM; IC50 (Chymotrypsin): 15 µM
0.002 | CNC(=O)[C@@H]1C[C@H](N2CCc3c(cccc3OCCC3CC3)C2)CN1C(=O)c1ccc(CN)c(OC)c1 | 11 | 
0.008 | CNC(=O)[C@@H]1C[C@H](N2CCc3c(cccc3OCCOC)C2)CN1C(=O)c1ccc(CN)c(OC)c1 | > 30 | clearance [5]: 9 mL/min/kg; IC50 (Coagulation factor X): > 100 µM; IC50 (Prothrombin): > 100 µM; AUC(0-t) at 24 h [6]: 3.88 µM·h; solubility [4]: > 1000 µM; IC50 (Neutrophil elastase): > 100 µM; IC50 (Chymotrypsin): > 100 µM
